Reference: ChEMBL document CHEMBL1201862, “PubChem BioAssay data set” (2004)
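In this assay, cells in 96-well plates receive the compound at five concentrations for 48 hours. Endpoints are linearly interpolated between the surrounding concentrations. GI50 marks 50% less growth.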 Activity calls are given as the source filed them. No stated cut-off is given here; in the data, active = GI50 up to about 1.1 µM and inactive = higher.

Legend:
Experiment in all cases: growth of human tumour cells (NCI), 48 h
[1] = tested on: A549
[2] = tested on: ACHN
[3] = tested on: COLO 205
[4] = tested on: DU-145
[5] = tested on: HT-29
[6] = tested on: Hs-578T
[7] = tested on: Malme-3M
[8] = tested on: NCI-H226
[9] = tested on: NCI-H460
[10] = tested on: OVCAR-4
[11] = tested on: OVCAR-8
[12] = tested on: PC-3
[13] = tested on: RXF 393
[14] = tested on: SF-268
[15] = tested on: SF-539
[16] = tested on: SK-OV-3
[17] = tested on: SR
[18] = tested on: U-251
[19] = tested on: UACC-62
[20] = tested on: HCC 2998

| SMILES | GI50 [1] | GI50 [2] | GI50 [3] | GI50 [4] | GI50 [5] | GI50 [6] | GI50 [7] | GI50 [8] | GI50 [9] | GI50 [10] | GI50 [11] | GI50 [12] | GI50 [13] | GI50 [14] | GI50 [15] | GI50 [16] | GI50 [17] | GI50 [18] | GI50 [19] | GI50 [20] |
| --- | --- | --- | --- | --- | --- | --- | --- | --- | --- | --- | --- | --- | --- | --- | --- | --- | --- | --- | --- | --- |
| Cn1c(=O)c2nc(CS(=O)(=O)Cc3nc4c(=O)n(C)c(=O)n(C)c4[nH]3)[nH]c2n(C)c1=O | > 100 µM (inactive) | > 100 µM (inactive) | > 100 µM (inactive) | > 100 µM (inactive) | > 100 µM (inactive) | > 100 µM (inactive) | > 100 µM (inactive) | > 100 µM (inactive) | > 100 µM (inactive) | 43.1 µM (inactive) | > 100 µM (inactive) | > 100 µM (inactive) | > 100 µM (inactive) | > 100 µM (inactive) | > 100 µM (inactive) | > 100 µM (inactive) | > 100 µM (inactive) | 33.2 µM (inactive) | > 100 µM (inactive) | – |
| Cc1ccc(-c2cc(N)n(-c3nc4c(c(=O)n(C)c(=O)n4C)n3C)n2)cc1 | > 100 µM (inactive) | > 100 µM (inactive) | > 100 µM (inactive) | > 100 µM (inactive) | > 100 µM (inactive) | 60.1 µM (inactive) | 45.6 µM (inactive) | 86.1 µM (inactive) | > 100 µM (inactive) | 42.5 µM (inactive) | > 100 µM (inactive) | > 100 µM (inactive) | > 100 µM (inactive) | 43.7 µM (inactive) | 45.8 µM (inactive) | 41 µM (inactive) | > 100 µM (inactive) | > 100 µM (inactive) | > 100 µM (inactive) | > 100 µM (inactive) |
| CC1(C)C2CCC1(C)C(NC(=O)CCN1CCOCC1)C2 (configuration not stated) | > 100 µM (inactive) | > 100 µM (inactive) | > 100 µM (inactive) | > 100 µM (inactive) | > 100 µM (inactive) | > 100 µM (inactive) | > 100 µM (inactive) | > 100 µM (inactive) | > 100 µM (inactive) | > 100 µM (inactive) | > 100 µM (inactive) | > 100 µM (inactive) | > 100 µM (inactive) | > 100 µM (inactive) | > 100 µM (inactive) | > 100 µM (inactive) | > 100 µM (inactive) | > 100 µM (inactive) | > 100 µM (inactive) | > 100 µM (inactive) |
| O=C(ON=C1c2ccccc2C(Br)C(Br)c2ccccc21)c1cc([N+](=O)[O-])cc([N+](=O)[O-])c1 (configuration not stated) | 30.4 µM (inactive) | 21.3 µM (inactive) | 20.3 µM (inactive) | 25.9 µM (inactive) | 16.3 µM (inactive) | 23 µM (inactive) | 18.5 µM (inactive) | 24.9 µM (inactive) | 19.2 µM (inactive) | 22.2 µM (inactive) | 17.3 µM (inactive) | 28.5 µM (inactive) | 19.6 µM (inactive) | 17.8 µM (inactive) | 18 µM (inactive) | 27.1 µM (inactive) | 0.245 µM (active) | 15.8 µM (inactive) | 18.7 µM (inactive) | 29.4 µM (inactive) |
| CN(N)C(=O)NCCCl | > 100 µM (inactive) | > 100 µM (inactive) | > 100 µM (inactive) | > 100 µM (inactive) | > 100 µM (inactive) | > 100 µM (inactive) | > 100 µM (inactive) | 0.23 µM (active) | > 100 µM (inactive) | > 100 µM (inactive) | – | > 100 µM (inactive) | > 100 µM (inactive) | > 100 µM (inactive) | > 100 µM (inactive) | > 100 µM (inactive) | > 100 µM (inactive) | > 100 µM (inactive) | > 100 µM (inactive) | > 100 µM (inactive) |
| CC(C)[C@@H](C)[C@@]1(C)C[C@@H]1[C@@H](C)[C@H]1CC[C@@H]([C@@H]2CC=C3C[C@@H](O)CC[C@]3(C)C2=O)[C@]1(C)CCO | – | 12.5 µM (inactive) | 11.9 µM (inactive) | 15.3 µM (inactive) | 2.58 µM (inactive) | 10.3 µM (inactive) | 14 µM (inactive) | 12.5 µM (inactive) | 1.77 µM (inactive) | 12.1 µM (inactive) | 12.7 µM (inactive) | 10.1 µM (inactive) | 3.3 µM (inactive) | 15.5 µM (inactive) | 12.6 µM (inactive) | – | 2.69 µM (inactive) | 11 µM (inactive) | 14.6 µM (inactive) | 4.2 µM (inactive) |
| CC(=O)c1c(SCCN2CCCC2)n(-c2ccccc2)c(=S)n(-c2ccccc2)c1=O | 5.82 µM (inactive) | 1.72 µM (inactive) | 1.76 µM (inactive) | 2.75 µM (inactive) | 6.62 µM (inactive) | 17.6 µM (inactive) | 3.85 µM (inactive) | 20.9 µM (inactive) | 17.9 µM (inactive) | 29 µM (inactive) | 9.48 µM (inactive) | 3.56 µM (inactive) | 2.3 µM (inactive) | 16.4 µM (inactive) | 6.12 µM (inactive) | 45.3 µM (inactive) | 2.28 µM (inactive) | 21.1 µM (inactive) | 6.93 µM (inactive) | 3.1 µM (inactive) |
| Nc1ncc(Cl)c(NCC2(CO)CC(CCc3ccccc3)C2)n1 (configuration not stated) | > 21.1 µM (inactive) | 34 µM (inactive) | > 100 µM (inactive) | > 100 µM (inactive) | – | > 100 µM (inactive) | > 100 µM (inactive) | > 100 µM (inactive) | > 55 µM (inactive) | > 100 µM (inactive) | 44 µM (inactive) | > 100 µM (inactive) | > 100 µM (inactive) | > 100 µM (inactive) | > 100 µM (inactive) | > 100 µM (inactive) | 2.38 µM (inactive) | 44.6 µM (inactive) | > 100 µM (inactive) | > 100 µM (inactive) |
| C/C(=N\NC(N)=S)c1sc(-n2nc(-c3ccccc3)cc2-c2ccccc2)nc1C | > 100 µM (inactive) | > 100 µM (inactive) | > 100 µM (inactive) | > 100 µM (inactive) | 37.5 µM (inactive) | > 100 µM (inactive) | > 100 µM (inactive) | > 100 µM (inactive) | > 100 µM (inactive) | 74.6 µM (inactive) | > 100 µM (inactive) | 63.1 µM (inactive) | > 100 µM (inactive) | > 100 µM (inactive) | > 100 µM (inactive) | 62.1 µM (inactive) | 67.3 µM (inactive) | > 100 µM (inactive) | > 100 µM (inactive) | > 100 µM (inactive) |
| CNC(=O)c1cc2nc3ccccc3c(=O)n2c2ccccc12 | > 10 µM (inactive) | > 10 µM (inactive) | > 10 µM (inactive) | > 10 µM (inactive) | > 10 µM (inactive) | > 10 µM (inactive) | > 10 µM (inactive) | > 10 µM (inactive) | – | > 10 µM (inactive) | > 10 µM (inactive) | > 10 µM (inactive) | > 10 µM (inactive) | > 10 µM (inactive) | > 10 µM (inactive) | > 10 µM (inactive) | > 10 µM (inactive) | > 10 µM (inactive) | > 10 µM (inactive) | > 10 µM (inactive) |
| C/C=C1/CN2CCc3c([nH]c4ccccc34)[C@@H]2C[C@@H]1Cc1nccc2c1[nH]c1cc(O)ccc12 | 2.23 µM (inactive) | 2.29 µM (inactive) | 2.78 µM (inactive) | 2.07 µM (inactive) | 1.87 µM (inactive) | 2.23 µM (inactive) | – | 3.85 µM (inactive) | 16.5 µM (inactive) | 1.57 µM (inactive) | 1.9 µM (inactive) | 2.25 µM (inactive) | 2.24 µM (inactive) | 1.77 µM (inactive) | 2.02 µM (inactive) | 2.17 µM (inactive) | 11.7 µM (inactive) | 2.19 µM (inactive) | 2.07 µM (inactive) | 1.42 µM (inactive) |
| CC(C)=CCN1CC(C)C(=O)Nc2cc(Cl)ccc21 (configuration not stated) | 30.2 µM (inactive) | 25 µM (inactive) | 19.8 µM (inactive) | 30 µM (inactive) | 19.2 µM (inactive) | 36.5 µM (inactive) | 25.1 µM (inactive) | 15.7 µM (inactive) | 20.5 µM (inactive) | 25.6 µM (inactive) | 29.7 µM (inactive) | 18.6 µM (inactive) | 28.4 µM (inactive) | 35.2 µM (inactive) | 23.5 µM (inactive) | 24.8 µM (inactive) | > 100 µM (inactive) | 27.4 µM (inactive) | – | 28.5 µM (inactive) |
| CN/C(=N\n1cnnc1)OC | > 100 µM (inactive) | > 100 µM (inactive) | > 100 µM (inactive) | > 100 µM (inactive) | > 100 µM (inactive) | > 100 µM (inactive) | > 100 µM (inactive) | – | > 100 µM (inactive) | > 100 µM (inactive) | > 100 µM (inactive) | > 100 µM (inactive) | > 100 µM (inactive) | – | – | > 100 µM (inactive) | > 100 µM (inactive) | > 100 µM (inactive) | > 100 µM (inactive) | > 100 µM (inactive) |
| Cc1ccc(Nc2nc(O)c3[nH]cnc3n2)cc1CO | 3 µM (inactive) | 16 µM (inactive) | 14.6 µM (inactive) | 19.5 µM (inactive) | 8.87 µM (inactive) | 21.2 µM (inactive) | 16.5 µM (inactive) | 17.1 µM (inactive) | 16.5 µM (inactive) | 17.1 µM (inactive) | 16.6 µM (inactive) | 12.8 µM (inactive) | 16.3 µM (inactive) | 20.7 µM (inactive) | – | 13.5 µM (inactive) | 14 µM (inactive) | – | 13 µM (inactive) | 15.5 µM (inactive) |
